Ten substances from US20250171776A1, “NON-CANONICAL CELL-PENETRATING PEPTIDES FOR ANTISENSE OLIGOMER DELIVERY” (priority 2023, published 2025) can be followed below.

Series [1] deals with HELA-654 cells. Briefly: Hela-654 eGFP assay (incucyte imaging, GFP positive cells, 72 h). The following applies: 72 h. Type of series: cell-based. On the procedure: HELA-654 cells were imaged at 72 hours with an incucyte and the number of GFP positive cells versus total cell counts were calculated with the incucyte image analysis software. Statistical analysis was conducted using a one-way analysis of variance (ANOVA) test with Dunnett's multiple comparison test. Bars represent mean±standard deviation (SD), with P<0.05 was considered to indicate statistical significance, (**** p<0.0001, *** […], ** p<0.01, * p<0.05).
HELA-654 cells were imaged at 72 hours with an incucyte and the number of GFP positive cells versus total cell counts were calculated with the incucyte image analysis software.

Series [2] relates to HeLa 654 cells. In words: HeLa 654 eGFP assay (flow cytometry, mean eGFP fluorescence, 22 h). The following applies: for PMO delivery: eGFP fluorescence relative to PMO alone: 20 μM, HeLa 654 cells, flow cytometry; for PMO delivery at varying concentrations (mean eGFP fluorescence relative to vehicle): 1, 2.5, 5, 10, 25 or 50 μM; for PMO delivery at varying concentrations (mean eGFP fluorescence relative to vehicle) / PMO response (mean eGFP fluorescence relative to vehicle) / PMO delivery (mean eGFP fluorescence relative to vehicle): 22 h; for PMO response (mean eGFP fluorescence relative to vehicle): 2.5 μM, segment-CXP1 conjugates; for PMO delivery (mean eGFP fluorescence relative to vehicle): 1 μM. Type of series: cell-based. On the procedure: Purified constructs were then tested using an activity-based readout in which nuclear delivery results in fluorescence. Briefly, HeLa cells stably transfected with an Enhanced Green Fluorescent Protein (eGFP) gene interrupted by a mutated intron of β-globin (IVS2-654) produce a non-fluorescent eGFP protein. As used herein, Hela-654 cells refers to the Hela cells transfected with an Enhanced Green Fluorescent Protein (eGFP) gene interrupted by a mutated intron of β-globin (IVS2-654) and Hela-654 eGFP Assay is used to refer to an Assay that uses the Hela-654 cells. Successful delivery of PMO IVS2-654 to the nucleus results in corrective splicing and eGFP synthesis.
The amount of PMO delivered to the nucleus is therefore correlated with eGFP fluorescence, quantified by flow cytometry. Activity was reported as mean fluorescence intensity (MFI) relative to PMO alone. This activity assay provides indirect information on how much active PMO is delivered to the nucleus. Relative efficiency of a PMO-CPP conjugate was characterized by comparing activity to internal concentration.
[…] 18 h prior to treatment, the cells were plated at a density of 5,000 cells per well in a 96-well plate in DMEM supplemented with 10% FBS and 1% penicillin-streptomycin.
For individual peptide testing, PPMOs were dissolved in phosphate buffered saline (PBS) without Ca^2+ or Mg^2+ at a concentration of 1 mM (determined by UV absorbance of the PMO) before being diluted in Dulbecco's modified eagle medium (DMEM). Cells were incubated at the designated concentrations in triplicate for 22 h at 37° C. and 5% CO2. Next, the treatment media was removed, and the cells were washed once before being incubated with 0.25% Trypsin-EDTA for 15 min at 37° C. and 5% CO2. Lifted cells were transferred to a V-bottom 96-well plate and washed once with PBS, before being resuspended in PBS containing 2% FBS and 2 μg/mL propidium iodide (PI). Flow cytometry analysis was carried out on a BD LSRII flow cytometer. Gates were applied to the data to ensure that cells that were positive for propidium iodide or had forward/side scatter readings that were sufficiently different from the main cell population were excluded. Each sample was capped at 5,000 gated events.
Analysis was conducted using Graphpad Prism 7 and FlowJo. For each sample, the mean fluorescence intensity (MFI) and the number of gated cells were measured. To report activity, triplicate MFI values were averaged and normalized to the PMO alone condition.
Background: A flow cytometer gives signals particle by particle.

Series [3] relates to HeLa 654 cells. Briefly: Lactate dehydrogenase (LDH) release assay in HeLa 654 cells. Type of series: cell-based. How it is done: (§1) The media from the cells was analyzed for LDH release with an LDH assay and the percentage of LDH release was calculated relative to fully lysed cells.
(§2) Cytotoxicity assays were performed in HeLa 654 cells or TH-1 renal cells. TH-1 cells were maintained in DMEM supplemented with 10% (v/v) fetal bovine serum (FBS) and 1% (v/v) penicillin-streptomycin at 37° C. and 5% CO2H-1. Cells were plated at 5,000 cells/well in a 96-well plate 18-hours prior to treatment and treated with PMO-peptide compounds as described above. HeLa cell LDH assays were performed concurrently on the cells treated for Flow cytometry, so all plating and treatment protocols match those described above.
(§3) 17 hours after cell treatment, the Promega CytoTox lysis solution was added to 3 wells of each plate as a fully lysed control (100% LDH-release). 18 hours after treatment, cell supernatant was transferred to a new 96-well plate for analysis of LDH release. To each well of the 96-well plate containing supernatant was added CytoTox 96 Reagent (Promega). […] Equal volume of Stop Solution was added to each well, mixed, and the absorbance of each well was measured at 490 nm. The measurement of vehicle-treated cells was subtracted from each measurement, and % LDH release was calculated as % cytotoxicity=100×Experimental LDH Release (OD490)/Maximum LDH Release (OD490).

Series [4] relates to eGFP-654 mice. In words: eGFP-654 mouse study: GFP fluorescence in tissue homogenates. Type of series: in vivo. The following applies: 20 mg/kg intravenous, tissues collected weekly for 8 weeks. On the procedure: The tissues from a series of organs were homogenized and GFP fluorescence was measured with a spectrophotometer and normalized to tissue quantity (FIG. 9-17). Median effective dose (ED50) was also derived from the dose-response curve. PMO-CXP1 compound exposure was calculated with an enzyme-linked oligonucleotide hybridization assay (ELOHA). Briefly, the ELOHA assay is a two-step hybridization assay where the analyte is bound to both an immobilized capture probe and biotinylated detection probe. Streptavidin-AP-conjugate is added to the mixture and AttoPhos substrate is added to the system and incubated for 10 minutes. Stop solution is added and the plate is read on the spectrophotometer. The compound concentrations were determined from a standard curve. […] Compound efficacy and exposure were calculated in the quadriceps (FIGS. 9-10), heart (FIGS. 11-12), diaphragm (FIGS. 13-14), and kidney (FIGS. 15-16). The compound was also found to have efficacy for up to 56 days in vivo (FIG. 17).
PPMOs at 3 mg/kg were intravenously delivered to eGFP-654 mice. […] The tissues were homogenized and GFP fluorescence measurements were read for a fluorescence spectrophotometer and normalized to tissue quantity to measure efficacy (FIGS. 26-29). Compound efficacy and exposure were calculated in the quadriceps (FIG. 26), heart (FIG. 27), diaphragm (FIG. 28), and kidney (FIG. 29).

Series [5] relates to TH-1 renal cells. Briefly: Lactate dehydrogenase (LDH) release assay in TH-1 renal cells. Type of series: cell-based. The following applies: LDH release at 18 hours. On the procedure: as §1, §2, §3
A general note: Release of lactate dehydrogenase indicates damage to the cell membrane.

[6] abbreviates: chimeric peptide PMO conjugates, read-out: EC50 (at 72 h).

pEC50: −log10 of the molar value. Read-outs that look alike come from different tables or passages of the source. Where no end group is shown, it is not given here. [ ]: non-standard residue; d: D form. 2Nal = N[C@@H](Cc1ccc2ccccc2c1)C(=O)O; Cit = NC(=O)NCCC[C@H](N)C(=O)O; Api = NC1(C(=O)O)CCNCC1; Dab = NCC[C@H](N)C(=O)O; Iph = iodophenylalanine

Regarding “Asn-Phe-Lys-Gln-Nap-His-Ala-Gly-Dab-Arg-Lys-Trp-Lys-Lys (NFKQ[2Nal]HAG[Dab]RKWKK; also: PMO conjugate) [PMO-CXP2]”, in series [1] (read-out: EC50 (at 72 h)), the negative-log EC50 (pEC50) (usually the EC50 on a negative log10 scale, so that one unit is a factor of ten) is 4.94. For the same substance, in series [2], the “PMO delivery: eGFP fluorescence relative to PMO alone” value is given as “high levels of PMO delivery” and the “PMO delivery at varying concentrations (mean eGFP fluorescence relative to vehicle)” value was “dose-dependent delivery of PMO”.

In the case of “Cit-Met-Phe-Gly-Pip-Dab-Dab-Lys-Ala-Pro-Lys-Trp-Lys-Lys ([Cit]MFG[Api][Dab][Dab]KAPKWKK; also: PMO conjugate) [PMO-CXP4]”, the pEC50 in series [1] (read-out: EC50 (at 72 h)) is 5.34. In series [2], the “PMO delivery: eGFP fluorescence relative to PMO alone” value is listed as “high levels of PMO delivery” and the “PMO delivery at varying concentrations (mean eGFP fluorescence relative to vehicle)” value was “dose-dependent delivery of PMO”.

With “Iph-Gly-Arg-Gly-Pip-Lys-Gln-Lys-Thr-Ser-Iph-Gly-Arg-Gly-Pip-Lys-Trp-Lys-Lys ([Iph]GRG[Api]KQKTS[Iph]GRG[Api]KWKK; also: PMO conjugate) [SA-CXP1]”, the “Toxicity: LDH release” value in series [3] (25 μM) is reported as “toxicity closest to the parent CXP1-CXP1 peptide”. Moreover, the pEC50 in series [1] (setting [6]) was 5.80. For the same substance, the “PMO response (mean eGFP fluorescence relative to vehicle)” value in series [2] is recorded as “highest PMO response compared to the other segment-CXP1 sequences”.

Regarding “Lys-Gln-Lys-Thr-Ser-Iph-Gly-Arg-Gly-Pip-Lys-Trp-Lys-Lys (KQKTS[Iph]GRG[Api]KWKK-NH2; also: PMO conjugated via DBCO linker) [PMO-CXP1]”, the pEC50 in series [1] (read-out: EC50 (at 72 h)) is 5.15. The “Duration of efficacy in vivo” value in series [4] was “up to 56 days”. For the same substance, in series [2], the “PMO delivery: eGFP fluorescence relative to PMO alone” value is recorded as “high levels of PMO delivery” and the “PMO delivery at varying concentrations (mean eGFP fluorescence relative to vehicle)” value is recorded as “dose-dependent delivery of PMO”.

With “Lys-Gln-Lys-Thr-Ser-Iph-Gly-Arg-Lys-Trp-Lys-Gln-Lys-Thr-Ser-Iph-Gly-Arg-Lys-Trp-Lys-Lys (KQKTS[Iph]GRKWKQKTS[Iph]GRKWKK; not fully specified (N-terminus, C-terminus); printed as Lys-Gln-Lys-Thr-Ser-Iph-Gly-Arg-Lys-Trp-Lys-Gln-Lys-Thr-Ser-Iph-Gly-Arg-Lys-Trp-Lys-Lys; also: PMO IVS2-654 conjugate) [CXD1B]”, the “Toxicity: LDH release” value in series [3] (50 μM) is “lower toxicity than the CXP1-CXP1 sequence”. Also, the pEC50 in series [1] (setting [6]) was 5.45. Moreover, the “Therapeutic window (HeLa-654 eGFP efficacy versus LDH release in TH-1 renal cells)” value in series [5] was “wider therapeutic window in comparison to other PMO-peptide conjugates”. Further, in series [2], the “PMO delivery (mean eGFP fluorescence relative to vehicle)” value was “high PMO delivery”.

Take “Lys-Gln-Lys-Thr-Ser-Phe-Gly-Arg-Gly-Pip-Lys-Trp-Lys-Lys (KQKTSFGRG[Api]KWKK; not fully specified (C-terminus); printed as Lys-Gln-Lys-Thr-Ser-Phe-Gly-Arg-Gly-Pip-Lys-Trp-Lys-Lys; also: PMO conjugate) [PMO-CXP1X]”: the pEC50 in series [1] (CXP1 analogs (unnatural amino acids replaced), read-out: EC50 (72 h)) is 4.76.

As to “Lys-Thr-Ser-Iph-Gly-Arg-Lys-Gln-Lys-Thr-Ser-Iph-Gly-Arg-Gly-Pip-Lys-Trp-Lys-Lys (KTS[Iph]GRKQKTS[Iph]GRG[Api]KWKK; not fully specified (C-terminus); printed as Lys-Thr-Ser-Iph-Gly-Arg-Lys-Gln-Lys-Thr-Ser-Iph-Gly-Arg-Gly-Pip-Lys-Trp-Lys-Lys; also: PMO conjugate) [SB-CXP1]”, the pEC50 in series [1] (setting [6]) is 5.68. Also, in series [2], the “PMO response (mean eGFP fluorescence relative to vehicle)” value was “highest PMO response compared to the other segment-CXP1 sequences”.

With “Lys-Thr-Ser-Iph-Gly-Arg-Lys-Gln-Lys-Thr-Ser-Iph-Gly-Arg-Lys-Trp-Lys-Lys (KTS[Iph]GRKQKTS[Iph]GRKWKK; not fully specified (N-terminus, C-terminus); printed as Lys-Thr-Ser-Iph-Gly-Arg-Lys-Gln-Lys-Thr-Ser-Iph-Gly-Arg-Lys-Trp-Lys-Lys; also: PMO IVS2-654 conjugate) [CXD1A]”, the pEC50 in series [1] (setting [6]) is 5.47. Besides, in series [2], the “PMO delivery (mean eGFP fluorescence relative to vehicle)” value was “high PMO delivery”.

“Lys-Trp-Lys-Lys-Gln-Lys-Thr-Ser-Iph-Gly-Arg-Gly-Pip-Lys-Trp-Lys-Lys (KWKKQKTS[Iph]GRG[Api]KWKK; not fully specified (N-terminus, C-terminus); printed as Lys-Trp-Lys-Lys-Gln-Lys-Thr-Ser-Iph-Gly-Arg-Gly-Pip-Lys-Trp-Lys-Lys; also: PMO conjugate) [SD-CXP1]”: the pEC50 in series [1] (setting [6]) is 5.64.

Regarding [Dab]VARNN[Dab]TKGKWKK [PMO-CXP3], the pEC50 in series [1] (read-out: EC50 (at 72 h)) was 4.86. Further, in series [2], the “PMO delivery: eGFP fluorescence relative to PMO alone” value is “high levels of PMO delivery” and the “PMO delivery at varying concentrations (mean eGFP fluorescence relative to vehicle)” value is given as “dose-dependent delivery of PMO”.
